Read-outs that look alike come from different tables or passages of the source. Numbered stars: 1 amine (or outer) side, 2 acyl side, 3 side chain; on linkers, the order of the positions; unused ones are H or OH. Square brackets hold non-standard residues; d marks the D form. Peptide text beside a SMILES is read from it. X1 = CO[C@H]1O[C@H](C(=O)[*:2])[C@@H](O)[C@H](O)[C@H]1N[*:1]; 2Furoyl(5-aminomethyl) = O=C(c1ccc(CN[*:1])o1)[*:2]; Aib = CC(C)(N)C(=O)O
What was measured:
[1] = target: T1, GLP-1R (Homo sapiens, UniProt P43220); assay: In vitro receptor functional assay (cAMP) in CHO/GLP-1R cells; assay type: cell-based; conditions: intracellular cAMP, 30 min with 1 mM IBMX
T1 construct: expressed in transfected cells; host or cells: CHO/GLP-1R cells
From the text: cAMP is a ubiquitous cellular second messenger that is critical component of a signal transduction pathway linking membrane receptors and their ligands to the activation of internal cellular enzymatic activity and gene expression. cAMP is synthesized from ATP by membrane bound adenylate cyclase in a very regulated manner. In its simpler form, binding of a ligand, such as hormone or drug, to its specific G protein coupled receptor can either stimulate or inhibit adenylate cyclase depending on the GPCR being activated. […] Therefore the relative concentration of cAMP serves as a means to monitor the activity of GPCRs at the cell surface.
CHO/GLP-1R Cell Culture—CHO/GLP-1R Cells were maintained in Ham's F-12 medium containing 10% Fetal bovine serum and 1% penicillin-streptomycin antibiotic solution at 37° C. in a 5% CO2 incubator.
Cells were washed twice with PBS (pH-7.2) and incubated with 100 μl Ham's F-12 serum free medium supplemented with 0.1% BSA for 2 hr at 37° C. in 5% CO2 incubator. Cells were then incubated in 100 μl Ham's F-12 serum free medium supplemented with 0.1% BSA with 1 mM IBMX in the presence as well as absence of the peptides as per present invention in different concentration (10 nM, 1 nM, 100 pM & 10 pM). The reaction was stopped 30 min later by washing the intact cells three times with ice cold PBS (pH-7.2). The intracellular cAMP was extracted by incubating the cells in 100 μl 0.1N HCl at room temperature for 20 minutes. Mixture was dissociated by pipetting up and down until the suspension became homogenous, transferred to centrifuge tube and centrifuged at 800 rpm for 10 minutes.
Dissolved 5 pNPP tablets in 25 ml DEA buffer. Wells were emptied and washed five times with wash buffer and added 200 μl pNPP solution to each well, plate was covered and allowed to develop in dark for 90 minutes.

[2] = target: T2, DPP-IV (Homo sapiens, UniProt P27487); assay: DPP-IV resistant assay; assay type: in vitro ADME; conditions: for half-life at 20 μM: pH 8
T2 construct: purchased Sigma-Aldrich
Protocol: 20 μM of peptides of the present invention (Sequence IDs—01, 02, 03, 04, 05, 06, 11, 12 and 13) were incubated with 60 mU/2 ml of DPP-IV (Sigma-Aldrich) enzyme at room temperature (22-24° C.) in 20 mM Tris HCl buffer, pH 8.0. The aliquots were analyzed for the amount of undegraded peptide concentration at different time intervals by RP-HPLC. The peak area integration was used to determine the amount of undegraded peptide (U.S. Pat. No. 7,067,488). T1/2 of each peptide was determined from the graph plotted between peak area of undegraded peptide vs. time. The peak area of DPP-IV untreated peptide in above mentioned buffer condition of same concentration was considered as time zero. […]

[3] = target: T3, NEP 24.11 (Homo sapiens, UniProt P08473); assay: NEP 24.11 resistant (degradation) assay; assay type: in vitro ADME; conditions: for half-life at 20 μM: buffer
T3 construct: purchased Calbiochem
Protocol: The aliquots were analyzed for the amount of undegraded peptide concentration at different time intervals using RP-HPLC by peak area integration. T1/2 of each peptide was determined from the graph plotted between peak area of undegraded peptide vs time.

T3 sequence (P08473 whole entry): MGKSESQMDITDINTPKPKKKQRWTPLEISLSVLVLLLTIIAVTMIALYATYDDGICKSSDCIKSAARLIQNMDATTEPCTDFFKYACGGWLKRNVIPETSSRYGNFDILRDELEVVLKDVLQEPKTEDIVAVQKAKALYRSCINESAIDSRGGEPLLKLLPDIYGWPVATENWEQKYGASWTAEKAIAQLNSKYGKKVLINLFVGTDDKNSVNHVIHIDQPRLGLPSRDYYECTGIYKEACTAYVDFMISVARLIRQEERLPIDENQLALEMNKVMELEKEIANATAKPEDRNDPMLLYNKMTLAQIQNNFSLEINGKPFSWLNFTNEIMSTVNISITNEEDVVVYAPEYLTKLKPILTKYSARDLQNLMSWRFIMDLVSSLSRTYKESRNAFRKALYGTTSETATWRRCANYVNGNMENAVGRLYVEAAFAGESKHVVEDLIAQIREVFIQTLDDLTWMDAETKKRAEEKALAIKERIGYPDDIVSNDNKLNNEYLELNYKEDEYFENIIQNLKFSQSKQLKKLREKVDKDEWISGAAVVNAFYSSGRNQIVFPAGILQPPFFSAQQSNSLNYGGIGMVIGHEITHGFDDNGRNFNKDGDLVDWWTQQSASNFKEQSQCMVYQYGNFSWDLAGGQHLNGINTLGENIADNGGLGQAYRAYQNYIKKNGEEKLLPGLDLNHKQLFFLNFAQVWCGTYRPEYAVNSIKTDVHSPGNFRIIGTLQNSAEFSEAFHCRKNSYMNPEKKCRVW
T1 sequence (P43220 24-463, species assumed): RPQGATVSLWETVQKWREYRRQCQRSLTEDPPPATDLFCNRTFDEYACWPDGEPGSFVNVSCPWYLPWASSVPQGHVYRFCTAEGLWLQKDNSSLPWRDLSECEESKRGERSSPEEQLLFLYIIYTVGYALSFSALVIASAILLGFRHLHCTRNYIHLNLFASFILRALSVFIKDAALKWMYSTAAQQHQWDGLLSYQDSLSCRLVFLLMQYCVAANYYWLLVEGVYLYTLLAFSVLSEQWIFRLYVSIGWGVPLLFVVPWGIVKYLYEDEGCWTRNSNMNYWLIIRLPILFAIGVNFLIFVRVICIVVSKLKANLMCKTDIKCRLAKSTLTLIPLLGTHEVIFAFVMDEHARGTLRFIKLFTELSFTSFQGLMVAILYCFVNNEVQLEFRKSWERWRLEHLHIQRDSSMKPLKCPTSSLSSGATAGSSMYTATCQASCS
T2 sequence (P27487 whole entry, species assumed): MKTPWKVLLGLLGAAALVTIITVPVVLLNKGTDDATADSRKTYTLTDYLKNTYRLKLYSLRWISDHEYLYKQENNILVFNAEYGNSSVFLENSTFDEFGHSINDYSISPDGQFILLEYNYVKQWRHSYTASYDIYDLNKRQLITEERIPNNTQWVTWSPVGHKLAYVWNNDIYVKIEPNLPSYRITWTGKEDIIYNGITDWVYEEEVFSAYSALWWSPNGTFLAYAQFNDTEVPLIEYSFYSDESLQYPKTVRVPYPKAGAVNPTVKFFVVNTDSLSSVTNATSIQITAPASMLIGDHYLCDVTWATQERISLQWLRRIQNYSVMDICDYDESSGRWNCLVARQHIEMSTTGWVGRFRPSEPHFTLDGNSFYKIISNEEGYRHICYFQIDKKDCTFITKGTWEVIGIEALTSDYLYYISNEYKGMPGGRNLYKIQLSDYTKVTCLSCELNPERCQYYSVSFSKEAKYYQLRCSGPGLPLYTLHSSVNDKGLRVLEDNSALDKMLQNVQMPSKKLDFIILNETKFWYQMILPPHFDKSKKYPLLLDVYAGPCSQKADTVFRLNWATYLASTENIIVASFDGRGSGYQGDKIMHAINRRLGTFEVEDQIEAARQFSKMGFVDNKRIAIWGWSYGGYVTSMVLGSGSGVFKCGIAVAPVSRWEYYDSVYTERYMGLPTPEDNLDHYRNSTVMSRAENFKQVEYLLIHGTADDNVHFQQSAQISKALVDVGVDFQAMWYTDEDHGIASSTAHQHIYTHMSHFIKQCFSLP

| EC50 [1] | Percentage degradation in hrs [2] | half-life at 20 μM [2] | SMILES | further results |
| --- | --- | --- | --- | --- |
| 0.043 nM | 43.62% | > 24 h | CC[C@H](C)[C@H](NC(=O)[C@H](Cc1ccccc1)NC(=O)[C@H](CCC(=O)O)NC(=O)[C@H](CCCCN)NC(=O)[C@H](C)NC(=O)[C@H](C)NC(=O)[C@H](CCC(N)=O)NC(=O)CNC(=O)[C@H](CCC(=O)O)NC(=O)[C@H](CC(C)C)NC(=O)[C@H](Cc1ccc(O)cc1)NC(=O)[C@H](CO)NC(=O)[C@H](CO)NC(=O)[C@@H](NC(=O)[C@H](CC(=O)O)NC(=O)[C@H](CO)NC(=O)[C@@H](NC(=O)[C@H](Cc1ccccc1)NC(=O)[C@@H](NC(=O)CNC(=O)c1ccc(CNC(=O)[C@@H](N)Cc2c[nH]cn2)o1)[C@@H](C)O)[C@@H](C)O)C(C)C)C(=O)N[C@@H](C)C(=O)N[C@@H](Cc1c[nH]c2ccccc12)C(=O)N[C@@H](CC(C)C)C(=O)N[C@H](C(=O)N[C@@H](CCCCN)C(=O)NCC(=O)N[C@@H](CCCNC(=N)N)C(=O)NCC(N)=O)C(C)C [Seq ID No. 02] |  |
| 0.061 nM | 13% | > 72 h | CC[C@H](C)[C@H](NC(=O)[C@H](Cc1ccccc1)NC(=O)[C@H](CCC(=O)O)NC(=O)[C@H](CCCCN)NC(=O)[C@H](C)NC(=O)[C@H](C)NC(=O)[C@H](CCC(N)=O)NC(=O)CNC(=O)[C@H](CCC(=O)O)NC(=O)[C@H](CC(C)C)NC(=O)[C@H](Cc1ccc(O)cc1)NC(=O)[C@H](CO)NC(=O)[C@H](CO)NC(=O)[C@@H](NC(=O)[C@H](CC(=O)O)NC(=O)[C@H](CO)NC(=O)[C@@H](NC(=O)[C@H](Cc1ccccc1)NC(=O)[C@@H](NC(=O)CNC(=O)[C@H](CCC(=O)O)NC(=O)c1ccc(CNC(=O)[C@@H](N)Cc2c[nH]cn2)o1)[C@@H](C)O)[C@@H](C)O)C(C)C)C(=O)N[C@@H](C)C(=O)N[C@@H](Cc1c[nH]c2ccccc12)C(=O)N[C@@H](CC(C)C)C(=O)N[C@H](C(=O)N[C@@H](CCCCN)C(=O)NCC(=O)N[C@@H](CCCNC(=N)N)C(N)=O)C(C)C [Seq ID No. 03] | half-life at 20 μM ([3]; pH 7.4): 29 h; metabolised at 54 h, 20 μM ([3]; isolated enzyme neprilysin, pH 7.4): 96.8% |
| 0.838 nM |  | 4.33 h | CC[C@H](C)[C@H](NC(=O)[C@H](Cc1ccccc1)NC(=O)[C@H](CCC(=O)O)NC(=O)[C@H](CCCCN)NC(=O)[C@H](C)NC(=O)[C@H](C)NC(=O)[C@H](CCC(N)=O)NC(=O)CNC(=O)[C@H](CCC(=O)O)NC(=O)[C@H](CC(C)C)NC(=O)[C@H](Cc1ccc(O)cc1)NC(=O)[C@H](CO)NC(=O)[C@H](CO)NC(=O)[C@@H](NC(=O)[C@H](CC(=O)O)NC(=O)[C@H](CO)NC(=O)[C@@H](NC(=O)[C@H](Cc1ccccc1)NC(=O)[C@@H](NC(=O)CNC(=O)[C@H](CCC(=O)O)NC(=O)[C@H]1O[C@H](OC)[C@H](NC(=O)[C@@H](N)Cc2c[nH]cn2)[C@@H](O)[C@@H]1O)[C@@H](C)O)[C@@H](C)O)C(C)C)C(=O)N[C@@H](C)C(=O)N[C@@H](Cc1c[nH]c2ccccc12)C(=O)N[C@@H](CC(C)C)C(=O)N[C@H](C(=O)N[C@@H](CCCCN)C(=O)NCC(=O)N[C@@H](CCCNC(=N)N)C(N)=O)C(C)C [Seq ID No. 06] |  |
| 0.056 nM |  |  | CC[C@H](C)[C@H](NC(=O)[C@H](Cc1ccccc1)NC(=O)[C@H](CCC(=O)O)NC(=O)[C@H](CCCCN)NC(=O)[C@H](C)NC(=O)[C@H](C)NC(=O)[C@H](CCC(N)=O)NC(=O)CNC(=O)[C@H](CCC(=O)O)NC(=O)[C@H](CC(C)C)NC(=O)[C@H](Cc1ccc(O)cc1)NC(=O)[C@H](CO)NC(=O)[C@H](CO)NC(=O)[C@@H](NC(=O)[C@H](CC(=O)O)NC(=O)[C@H](CO)NC(=O)[C@@H](NC(=O)[C@H](Cc1ccccc1)NC(=O)[C@@H](NC(=O)CNC(=O)[C@H]1O[C@H](OC)[C@H](NC(=O)[C@@H](N)Cc2c[nH]cn2)[C@@H](O)[C@@H]1O)[C@@H](C)O)[C@@H](C)O)C(C)C)C(=O)N[C@@H](C)C(=O)N[C@@H](Cc1c[nH]c2ccccc12)C(=O)N[C@@H](CC(C)C)C(=O)N[C@H](C(=O)N[C@@H](CCCCN)C(=O)NCC(=O)N[C@@H](CCCNC(=N)N)C(N)=O)C(C)C [Seq ID No. 07] |  |
| 0.601 nM |  |  | CC[C@H](C)[C@H](NC(=O)[C@H](Cc1ccccc1)NC(=O)[C@H](CCC(=O)O)NC(=O)[C@H](CCCCN)NC(=O)[C@H](C)NC(=O)[C@H](C)NC(=O)[C@H](CCC(N)=O)NC(=O)CNC(=O)[C@H](CCC(=O)O)NC(=O)[C@H](CC(C)C)NC(=O)[C@H](Cc1ccc(O)cc1)NC(=O)[C@H](CO)NC(=O)[C@H](CO)NC(=O)[C@@H](NC(=O)[C@H](CC(=O)O)NC(=O)[C@H](CO)NC(=O)[C@@H](NC(=O)[C@H](Cc1ccccc1)NC(=O)[C@@H](NC(=O)CNC(=O)c1ccc(CNC(=O)[C@@H](N)Cc2c[nH]cn2)o1)[C@@H](C)O)[C@@H](C)O)C(C)C)C(=O)N[C@@H](C)C(=O)N[C@@H](Cc1c[nH]c2ccccc12)C(=O)N[C@@H](CC(C)C)C(=O)N[C@H](C(=O)N[C@@H](CCCCN)C(=O)NCC(=O)N[C@@H](CCCNC(=N)N)C(N)=O)C(C)C [Seq ID No. 08] |  |
| 1 nM |  |  | CC[C@H](C)[C@H](NC(=O)[C@H](Cc1ccccc1)NC(=O)[C@H](CCC(=O)O)NC(=O)[C@H](CCCCN)NC(=O)[C@H](C)NC(=O)[C@H](C)NC(=O)[C@H](CCC(N)=O)NC(=O)CNC(=O)[C@H](CCC(=O)O)NC(=O)[C@H](CC(C)C)NC(=O)[C@H](Cc1ccc(O)cc1)NC(=O)[C@H](CO)NC(=O)[C@H](CO)NC(=O)C(C)(C)NC(=O)[C@H](CC(=O)O)NC(=O)[C@H](CO)NC(=O)[C@@H](NC(=O)[C@H](Cc1ccccc1)NC(=O)[C@@H](NC(=O)CNC(=O)[C@H](CCC(=O)O)NC(=O)c1ccc(CNC(=O)[C@@H](N)Cc2c[nH]cn2)o1)[C@@H](C)O)[C@@H](C)O)C(=O)NC(C)(C)C(=O)N[C@@H](Cc1c[nH]c2ccccc12)C(=O)N[C@@H](CC(C)C)C(=O)N[C@H](C(=O)N[C@@H](CCCCN)C(=O)NCC(=O)N[C@@H](CCCNC(=N)N)C(=O)NCC(N)=O)C(C)C [Seq ID No. 09] (H-H[2Furoyl(5-aminomethyl)]EGTFTSD[Aib]SSYLEGQAAKEFI[Aib]WLVKGRG-NH2) |  |
| 3.38 nM |  |  | CC[C@H](C)[C@H](NC(=O)[C@H](Cc1ccccc1)NC(=O)[C@H](CCC(=O)O)NC(=O)[C@H](CCCCN)NC(=O)[C@H](C)NC(=O)[C@H](C)NC(=O)[C@H](CCC(N)=O)NC(=O)CNC(=O)[C@H](CCC(=O)O)NC(=O)[C@H](CC(C)C)NC(=O)[C@H](Cc1ccc(O)cc1)NC(=O)[C@H](CO)NC(=O)[C@H](CO)NC(=O)C(C)(C)NC(=O)[C@H](CC(=O)O)NC(=O)[C@H](CO)NC(=O)[C@@H](NC(=O)[C@H](Cc1ccccc1)NC(=O)[C@@H](NC(=O)CNC(=O)c1ccc(CNC(=O)[C@@H](N)Cc2c[nH]cn2)o1)[C@@H](C)O)[C@@H](C)O)C(=O)NC(C)(C)C(=O)N[C@@H](Cc1c[nH]c2ccccc12)C(=O)N[C@@H](CC(C)C)C(=O)N[C@H](C(=O)N[C@@H](CCCCN)C(=O)NCC(=O)N[C@@H](CCCNC(=N)N)C(=O)NCC(N)=O)C(C)C [Seq ID No. 10] (H-H[2Furoyl(5-aminomethyl)]GTFTSD[Aib]SSYLEGQAAKEFI[Aib]WLVKGRG-NH2) |  |
|  | 24.93% | > 24 h | CC[C@H](C)[C@H](NC(=O)[C@H](Cc1ccccc1)NC(=O)[C@H](CC(C)C)NC(=O)[C@H](CCCCN)NC(=O)[C@H](C)NC(=O)[C@H](C)NC(=O)[C@H](CCC(N)=O)NC(=O)CNC(=O)[C@H](CCC(=O)O)NC(=O)[C@H](CCC(N)=O)NC(=O)[C@H](Cc1ccc(O)cc1)NC(=O)[C@H](CO)NC(=O)[C@H](CC(C)C)NC(=O)[C@@H](NC(=O)[C@H](CC(=O)O)NC(=O)[C@H](CO)NC(=O)[C@@H](NC(=O)[C@H](Cc1ccccc1)NC(=O)[C@@H](NC(=O)CNC(=O)[C@H]1O[C@H](OC)[C@H](NC(=O)[C@@H](N)Cc2c[nH]cn2)[C@@H](O)[C@@H]1O)[C@@H](C)O)[C@@H](C)O)C(C)C)C(=O)N[C@@H](CCC(=O)O)C(=O)N[C@@H](Cc1c[nH]c2ccccc12)C(=O)N[C@@H](CC(C)C)C(=O)N[C@H](C(=O)N[C@@H](CCCCN)C(=O)NCC(=O)N[C@@H](CCCNC(=N)N)C(N)=O)C(C)C [Seq ID No. 12] (H-H[X1]GTFTSDVLSYQEGQAAKLFIEWLVKGR-NH2; N-terminus assumed) | half-life at 20 μM ([3]; 20 μM peptide, 1 mg/ml NEP 24.11, 37° C., 50 mM Hepes, 50 mM NaCl, pH 7.4, RP-HPLC, read-out: T1/2 (converted)): 27.5 h; metabolised at 54 h, 20 μM ([3]; isolated NEP 24.11 enzyme (Calbiochem), pH 7.4, NEP 24.11, after 54 hrs, read-out: % Degradation (after 54 hrs)): 93.5% |

— patent US20110269680A1 (PANACEA BIOTEC LIMITED, priority 2008, published 2011)
